Where two headings read alike, the source gives them in different places.
Key:
[1] = tested on: C. albicans (ATCC strain 90028); experiment: Antifungal microdilution broth assay (PrestoBlue), C. albicans; format: cell-based, Candida albicans; conditions: Candida albicans
Outline: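 Inoculum of 1.5×10^3 cells/mL in RPMI-MOPS (0.165 M MOPS, pH 7.0), exposed to aurones for 24 h at 35 °C. Growth read by PrestoBlue (10% final) fluorescence at ex 560/em 590 nm.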

[2] = tested on: Trypanosoma brucei brucei 427 cells; experiment: T. brucei culture and assay (PrestoBlue); format: cell-based; conditions: Trypanosoma brucei; Table 1; mean of 2(+) independent trials; read-out: IC50 T. brucei
[3] = tested on: C. tropicalis (ATCC strain 750); experiment: Antifungal microdilution broth assay (PrestoBlue), C. tropicalis; format: cell-based; conditions: Candida tropicalis, ATCC750; Table 5
Procedure: Sigma-Aldrich) was used as the base medium for testing. […] solution of morpholinepropanesulfonic acid (MOPS; Sigma-Aldrich) was added to the RPMI to a final concentration of 0.165 M for buffering (RPMI-MOPS). This medium was adjusted to a pH of 7.0 with 10 M NaOH and filter sterilized. C. albicans (ATCC strain 90028), C. [NT] strain 66032), and C. tropicalis (ATCC strain 750) were cultured on potato dextrose agar (Sigma-Aldrich) plates, and incubated at 35° C. for 24 hours. For antifungal testing, overnight colonies were adjusted to 1.5×10^3 cells/mL, hereafter referred to as the test inoculum. […] Reduction of the compound from resazurin to resorufin is proportional to the number of metabolically active cells and can be quantified by measuring relative fluorescence units (RFUs). […] PrestoBlue was added to a final concentration of 10% in each well and fluorescence read at 560 nm excitation and 590 nm emission, per manufacturer instructions, using a SpectraMax M2e spectrophotometer (Molecular Devices, LLC, Sunnyvale, Calif.). […] The calculated Z', as described below, was compared to RFU readings and the optimal PrestoBlue incubation time was determined to be 75 minutes. IC50 determination was calculated using GraphPad Prism version 7.01 for Windows (GraphPad Software, Inc., La Jolla, Calif.) from the RFUs at dilution points. […]

ERK, JNK, p38 = experiment: Western blot, MAPK phosphorylation, THP-1; conditions: LPS 15 min
Procedure: (§1) U0126 is a compound that inhibits MEK1/2 and was used as positive control for ERK phosphorylation inhibition (Hotokezaka, Sakai et al. 2002). Cells were lysed with radio-immunoprecipitation assay (RIPA) lysis buffer that contained a protease and phosphatase inhibitor cocktail. Cell lysates were then tested for protein concentration using a BCA protein assay and diluted with RIPA lysis buffer to normalize protein concentration in all samples. Lysates were mixed with sample loading buffer containing bromophenol blue, glycerol, SDS, and 2-mercaptoethanol. The separated proteins were then transferred onto a nitrocellulose membrane and blocked with 5% BSA in IX Tris-buffered saline with 0.1% Tween-20 for 1 h. The blots were incubated with primary antibodies at 4° C. overnight followed by incubation with HRP-conjugated secondary antibodies for 2 h at 22° C. The membranes were developed by addition of ECL substrate and images were collected with a ChemiDoc XRS+ system chemiluminescence imager (Bio-Rad, Hercules, Calif., USA). Western blot band intensity was quantified using Image Lab software (Bio-Rad, Hercules, Calif., USA). […]

NF-κB-dependent promoter = experiment: pNF-κB-Luc luciferase assay, RAW 264.7; format: cell-based, murine; conditions: 50 μM, 1 h pre-treatment, LPS 6 h, RAW264.7
Procedure: Cells were lysed in 250 μl/well of luminometry lysis buffer [25 mM Tris-phosphate, 1%(w/v) BSA, 0.025%(w/v) dithiothreitol (DTT), 1% Triton X-100, 15%(v/v) glycerol, 0.1 mM EDTA, 8 mM MgCl2, 1× protease inhibitor cocktail, and 1 mM phenylmethylsulfonyl fluoride] and incubated on a shaking table at 200 rpm for 15 min. A volume of 10 μl of 25 mM ATP was added to each well, and the samples were transferred in duplicates of 100 μl to an opaque-white 96-well plate. A volume of 20 μl of 10 mM sodium pyrophosphate was added to each well prior to the addition of 100 μl of 2 mM D-luciferin. Luminescence was quantified using a SpectraMax M5 plate reader using SoftMax Pro 6.3 software (Molecular Devices, Sunnyvale, Calif., USA).

IKKβ, IκBα, p65 [4] = experiment: Western blot, IKK / IκBα / p65 phosphorylation, THP-1; conditions: 12.5, 25, 50 μM, LPS 15 min, dose-dependent
Procedure: as §1

IKKβ, IκBα, p65 [5] = experiment: Western blot, IKK / IκBα / p65 phosphorylation, RAW 264.7; conditions: 12.5, 25, 50 μM, LPS 15 min, dose-dependent
Procedure: as §1

COc1ccc(/C=C2\Oc3c(ccc(O)c3O)C2=O)cc1O [Aurone 1009, (Z)-6,7-dihydroxy-2-(3-hydroxy-4-methoxybenzylidene)benzofuran-3(2H)-one]
IC50 ([1]; ATCC90028, Table 5, read-out: IC50 C. albicans): 16 µM
IC50 ([1]; ATCC90028, across C. albicans, C. glabrata, and C. tropicalis, read-out: IC50 values against Candida species): 10 to 18 µM
melting point: 275 to 280 °C
IC50 [2]: 18.8 µM
IC50 [3]: 10 µM

O=C1/C(=C/c2ccc(CO)o2)Oc2ccccc21 [aurone 1]
phosphorylation of ERK, JNK, or p38 (ERK, JNK, p38): no statistically significant effect
LPS-induced luciferase expression (pNF-κB-Luc) (NF-κB-dependent promoter): significantly inhibit LPS-induced luciferase expression
phosphorylation of IKKβ, IκBα and p65 (IKKβ, IκBα, p65 [4]): suppress the phosphorylation of all three proteins
phosphorylation of IKKβ, IκBα and p65 (IKKβ, IκBα, p65 [5]): suppress the phosphorylation of all three proteins

— US20200399238A1, “THERAPEUTIC AURONES” (MIDDLE TENNESSEE STATE UNIVERSITY, priority 2016, published 2020)
